“Also recorded” adds a separate entry of the source. Where two headings read alike, the source gives them in different places. Residues, ends and D or L forms follow the SMILES beside them.
Experiments:
[1] = target: T1, SdeA181-1000 (Legionella pneumophila subsp. pneumophila, UniProt Q5ZTK4); type: biochemical, L. pneumophila
[2] = tested on: SdeA; type: biochemical, L. pneumophila; details: 100 μM analogue, 100 μM ubiquitin, 0.5 μM enzyme, emission 410 nm
[3] = target: SdeA (Legionella pneumophila subsp. pneumophila, UniProt Q5ZTK4); details: cited from earlier work
[4] = target: T1, SdeA181-1000; type: biochemical, L. pneumophila; remark: listed apart in the source
[5] = target: T1, SdeA181-1000; type: biochemical, L. pneumophila; remark: listed apart in the source

T1 sequence (Q5ZTK4 181-1000 limits assumed): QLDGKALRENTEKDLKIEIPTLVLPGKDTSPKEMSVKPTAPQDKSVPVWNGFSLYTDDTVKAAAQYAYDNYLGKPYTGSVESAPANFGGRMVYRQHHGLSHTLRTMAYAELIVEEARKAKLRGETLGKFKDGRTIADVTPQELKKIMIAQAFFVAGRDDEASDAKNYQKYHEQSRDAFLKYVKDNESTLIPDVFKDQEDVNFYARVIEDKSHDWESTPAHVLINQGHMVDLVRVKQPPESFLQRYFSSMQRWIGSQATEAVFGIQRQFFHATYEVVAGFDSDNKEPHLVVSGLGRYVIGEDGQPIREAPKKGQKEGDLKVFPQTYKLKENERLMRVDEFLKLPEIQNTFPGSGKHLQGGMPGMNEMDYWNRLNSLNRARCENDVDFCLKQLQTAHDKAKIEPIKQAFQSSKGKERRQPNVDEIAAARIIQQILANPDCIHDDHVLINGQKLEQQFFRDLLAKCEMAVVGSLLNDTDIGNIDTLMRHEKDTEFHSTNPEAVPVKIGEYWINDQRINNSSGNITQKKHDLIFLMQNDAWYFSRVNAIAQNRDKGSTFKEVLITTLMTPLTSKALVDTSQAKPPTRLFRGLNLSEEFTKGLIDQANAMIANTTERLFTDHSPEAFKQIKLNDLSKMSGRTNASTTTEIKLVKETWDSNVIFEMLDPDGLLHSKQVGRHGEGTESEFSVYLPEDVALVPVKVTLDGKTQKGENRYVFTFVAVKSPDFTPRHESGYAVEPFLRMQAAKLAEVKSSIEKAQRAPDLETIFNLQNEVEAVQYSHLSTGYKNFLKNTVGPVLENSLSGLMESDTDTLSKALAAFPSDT
SdeA (Legionella pneumophila subsp. pneumophila, UniProt Q5ZTK4), sequence (Q5ZTK4 whole entry, looked up): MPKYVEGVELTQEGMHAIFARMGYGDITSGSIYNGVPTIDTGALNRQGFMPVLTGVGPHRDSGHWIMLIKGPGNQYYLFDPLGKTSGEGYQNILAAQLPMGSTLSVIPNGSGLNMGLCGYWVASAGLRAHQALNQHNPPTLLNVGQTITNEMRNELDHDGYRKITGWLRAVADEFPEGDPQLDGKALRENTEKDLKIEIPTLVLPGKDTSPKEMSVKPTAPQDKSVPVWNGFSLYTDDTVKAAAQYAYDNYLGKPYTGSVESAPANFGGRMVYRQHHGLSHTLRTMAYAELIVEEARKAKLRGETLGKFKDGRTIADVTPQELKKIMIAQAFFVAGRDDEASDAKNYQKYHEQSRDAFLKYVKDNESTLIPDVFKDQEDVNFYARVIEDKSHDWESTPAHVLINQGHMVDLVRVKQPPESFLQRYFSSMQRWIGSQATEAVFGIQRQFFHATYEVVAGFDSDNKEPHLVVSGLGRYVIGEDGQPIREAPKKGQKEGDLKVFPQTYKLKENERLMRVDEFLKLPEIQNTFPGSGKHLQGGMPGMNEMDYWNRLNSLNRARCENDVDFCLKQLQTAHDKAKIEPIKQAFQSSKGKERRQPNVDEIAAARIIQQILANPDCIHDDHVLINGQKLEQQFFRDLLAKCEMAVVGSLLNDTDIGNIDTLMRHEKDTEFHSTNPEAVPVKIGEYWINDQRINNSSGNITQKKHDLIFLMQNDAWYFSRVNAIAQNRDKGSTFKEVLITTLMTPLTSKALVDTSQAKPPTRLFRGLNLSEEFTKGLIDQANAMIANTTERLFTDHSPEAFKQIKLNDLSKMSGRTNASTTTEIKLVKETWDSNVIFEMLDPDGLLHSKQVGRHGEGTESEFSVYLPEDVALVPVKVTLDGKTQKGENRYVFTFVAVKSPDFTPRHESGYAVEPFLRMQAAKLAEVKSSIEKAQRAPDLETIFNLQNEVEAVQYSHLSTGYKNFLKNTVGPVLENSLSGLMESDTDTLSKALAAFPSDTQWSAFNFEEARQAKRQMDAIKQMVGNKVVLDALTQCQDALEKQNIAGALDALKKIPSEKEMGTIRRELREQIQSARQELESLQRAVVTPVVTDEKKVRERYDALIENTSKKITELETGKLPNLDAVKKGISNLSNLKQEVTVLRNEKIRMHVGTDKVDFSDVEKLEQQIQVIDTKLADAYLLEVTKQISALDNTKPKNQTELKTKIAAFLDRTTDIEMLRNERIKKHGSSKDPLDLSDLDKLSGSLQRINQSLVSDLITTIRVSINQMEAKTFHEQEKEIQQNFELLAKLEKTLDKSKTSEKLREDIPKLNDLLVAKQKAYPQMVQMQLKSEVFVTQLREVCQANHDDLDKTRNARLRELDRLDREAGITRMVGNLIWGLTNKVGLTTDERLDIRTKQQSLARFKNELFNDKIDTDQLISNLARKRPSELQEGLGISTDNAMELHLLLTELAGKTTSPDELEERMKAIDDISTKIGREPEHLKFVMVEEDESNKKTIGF

SMILES: Nc1ncnc2c1ncn2[C@@H]1O[C@H](COP(=O)(O)OP(=O)(O)OC[C@H]2OC(O)[C@H](O)[C@@H]2O)[C@@H](O)[C@H]1O (some centres unmarked) [ADP-ribose]
- inhibition of peptide ubiquitination [1]: inhibition of peptide ubiquitination; also recorded: impairment of peptide ubiquitination

SMILES: NC(=O)c1ccc[n+]([C@@H]2O[C@H](COP(=O)(O)OP(=O)([O-])OC[C@H]3O[C@@H](c4snc5c(N)ncnc45)C(O)C3O)C(O)C2O)c1 (some centres unmarked) [N^tzAD^+]
- fluorescence increase on incubation with SdeA and Ub ([2]; listed as NtzAD+): lower fold increase in fluorescence intensity

SMILES: NC(=O)c1ccc[n+]([C@@H]2O[C@H](COP(=O)([O-])OP(=O)([O-])OC[C@H]3O[C@@H](n4cnc5c4nc[n+]4cc[nH]c54)C(O)[C@H]3O)[C@H](O)C2O)c1 (some centres unmarked) [εNAD^+, nicotinamide 1,N6-ethenoadenine dinucleotide]
- fluorescence increase on incubation with SdeA and Ub [2]: increase in fluorescence emission at 410 nm

SMILES: Nc1ncnc2c1ncn2[C@@H]1O[C@H](COP(=O)(O)O)[C@@H](O)[C@H]1O [AMP, adenosine monophosphate]
- inhibition of peptide ubiquitination [1]: inhibition of peptide ubiquitination; also recorded: impairment of peptide ubiquitination
- inhibitor of SdeA-catalyzed ubiquitination (previous study) [3]: weak inhibitor

SMILES: CSCC[C@H](NC(=O)c1ccc(-c2c3ccc(=O)cc-3oc3cc(O)ccc23)c(C(=O)O)c1)C(=O)N[C@@H](CO)C(=O)N[C@@H](CO)C(=O)N[C@@H](CCSC)C(=O)N[C@@H](CC(N)=O)C(=O)N1CCC[C@H]1C(=O)N[C@@H](CCC(=O)O)C(=O)N[C@@H](Cc1ccc(O)cc1)C(=O)N[C@@H](CC(=O)O)C(N)=O [peptide] (HELM PEPTIDE1{[O=C(O)c1cc(C(=O)[*:2])ccc1-c1c2ccc(=O)cc-2oc2cc(O)ccc12].M.S.S.M.N.P.E.Y.D.[am]}$$$$V2.0)
- ubiquitination of peptide by SdeA (fluorescence polarization) [4]: significant increase in FP
- Km ([4]; read-out: apparent KM): ~80 µM
- in-gel fluorescence of ubiquitinated peptide (SDS-PAGE) [5]: presence of a fluorescent band around 10 kDa

Reference: patent US20210396743A1 (priority 2020, published 2021)
